Assay results taken from patent US10106542B2, “Substituted 6,7-dihydropyrazolo[1,5-a]pyrazines as negative allosteric modulators of mGluR2 receptors” (Janssen Pharmaceutica NV, priority 2013, dated 2018).

Target: T1, human mGlu2 receptor (Homo sapiens, UniProt Q14416)
T1 construct: expressed in transfected cells; host or cells: CHO cells (membrane preparation)
Assay: [35S]GTPγS binding assay (mGluR2 negative allosteric modulation)
Format: biochemical
Conditions: for IC50: read-out: GTPγS - hmGluR2 anGT pIC50 (converted); for Emax / GTPγS - hmGluR2 anGT Emax: relative maximal effect: maximal % inhibition relative to the control glutamate response; for Emax: read-out: GTPγS - hmGluR2 anGT Emax
Procedure: 1) [^35S]GTPγS binding assay
The [^35S]GTPγS binding assay is a functional membrane-based assay used to study G-protein coupled receptor (GPCR) function whereby incorporation of a non-hydrolysable form of GTP, [^35S]GTPγS (guanosine 5′-triphosphate, labelled with […] ^35S), is measured. The G-protein a subunit catalyzes the exchange of guanosine 5′-diphosphate (GDP) by guanosine triphosphate (GTP) and on activation of the GPCR by an agonist, [^35S]GTPγS, becomes incorporated and cannot be cleaved to continue the exchange cycle (Harper (1998) Current Protocols in Pharmacology 2.6.1-10, John Wiley & Sons, Inc.). […] Here we describe the use of the [^35S]GTPγS binding assay using membranes from cells transfected with the human mGlu2 receptor and adapted from Schaffhauser et al. (Molecular Pharmacology, 2003, […]) for the detection of the negative allosteric modulation (NAM) properties of the compounds of this invention.
CHO-cells were cultured to pre-confluence and stimulated with 5 mM butyrate for 24 h. Cells were then collected by scraping in PBS and cell suspension was centrifuged (10 min at 4000 RPM in benchtop centrifuge). Supernatant was discarded and pellet gently resuspended in 50 mM Tris-HCl, pH 7.4 by mixing with an Ultra Turrax homogenizer. The suspension was centrifuged at 12,400 RPM (Sorvall F14S-6x250Y) for 10 minutes and the supernatant discarded. The pellet was homogenized in 5 mM Tris-HCl, pH 7.4 using an Ultra Turrax homogenizer and centrifuged again (13,000 RPM, 20 min, 4° C.). The final pellet was resuspended in 50 mM Tris-HCl, pH 7.4 and stored at −80° C. in appropriate aliquots before use. Protein concentration was determined by the Bradford method (Bio-Rad, USA) with bovine serum albumin as standard.
Measurement of mGluR2 negative allosteric modulatory activity of test compounds was performed as follows. Test compounds and glutamate were diluted in assay buffer containing 10 mM HEPES acid, 10 mM HEPES salt, pH 7.4, 100 mM NaCl, 3 mM MgCl2 and 10 μM GDP. Human mGlu2 receptor-containing membranes were thawed on ice and diluted in assay buffer supplemented with 18 μg/ml saponin. […] After addition of [^35S]GTPγS (f.c. 0.1 nM), assay mixtures were shaken briefly and further incubated to allow [^35S]GTPγS incorporation on activation (30 minutes, 30° C.). Final assay mixtures contained 7 μg of membrane protein in 10 mM HEPES acid, 10 mM HEPES salt, pH 7.4, 100 mM NaCl, 3 mM MgCl2, 10 μM GDP and 10 μg/ml saponin. Total reaction volume was 200 μl. Reactions were terminated by rapid filtration through Unifilter-96 GF/B plates (Perkin Elmer, Massachusetts, USA) using a 96-well filtermate universal harvester. Filters were washed 6 times with ice-cold 10 mM NaH2PO4/10 mM Na2HPO4, pH 7.4. Filters were then air-dried, and 30 μl of liquid scintillation cocktail (Microscint-O) was added to each well. Membrane-bound radioactivity was counted in a Topcount.
The concentration-response curves of representative compounds of the present invention were generated using the Lexis software interface (developed at J&J). Data were calculated as % of the control glutamate response, defined as the response that is generated upon addition of an EC80-equivalent concentration of glutamate.

[1] = membranes from CHO cells transfected with human mGlu2 receptor, glutamate 60 μM, pIC50 = −log IC50 (M)

T1 sequence (Q14416 19-872): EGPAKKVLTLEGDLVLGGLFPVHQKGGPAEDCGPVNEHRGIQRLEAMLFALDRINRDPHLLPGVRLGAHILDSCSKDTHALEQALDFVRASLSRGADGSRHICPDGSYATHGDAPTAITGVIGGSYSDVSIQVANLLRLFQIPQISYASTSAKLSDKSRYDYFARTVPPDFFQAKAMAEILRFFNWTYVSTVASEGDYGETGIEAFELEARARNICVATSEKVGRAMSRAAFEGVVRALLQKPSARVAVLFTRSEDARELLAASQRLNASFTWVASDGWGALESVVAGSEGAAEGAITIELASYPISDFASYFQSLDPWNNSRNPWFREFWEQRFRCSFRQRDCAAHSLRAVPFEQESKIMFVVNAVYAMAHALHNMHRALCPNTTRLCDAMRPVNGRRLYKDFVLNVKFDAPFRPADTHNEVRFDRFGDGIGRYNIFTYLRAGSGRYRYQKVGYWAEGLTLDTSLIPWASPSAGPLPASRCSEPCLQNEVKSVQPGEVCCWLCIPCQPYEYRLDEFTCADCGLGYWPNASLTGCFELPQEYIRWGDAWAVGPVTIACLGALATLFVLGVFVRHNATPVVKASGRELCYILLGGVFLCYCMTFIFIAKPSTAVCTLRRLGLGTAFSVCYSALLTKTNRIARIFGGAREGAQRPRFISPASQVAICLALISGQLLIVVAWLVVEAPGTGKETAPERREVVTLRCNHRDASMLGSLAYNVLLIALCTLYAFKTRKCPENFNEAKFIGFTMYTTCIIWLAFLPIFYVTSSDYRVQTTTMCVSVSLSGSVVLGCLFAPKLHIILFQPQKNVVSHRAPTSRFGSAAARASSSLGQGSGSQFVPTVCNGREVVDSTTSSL

IC50 [1] [M]	Emax [%]	GTPγS - hmGluR2 anGT Emax [%]	GTPγS - hmGluR2 anGT pIC50 [1]	SMILES
3.63e-08	106			Cc1cc(-c2cnn3c2C(=O)N(c2ccc(Br)cc2)C[C@@H]3C)ccn1 [compound 139]
6.03e-09	108			CCCNc1cc(-c2cnn3c2C(=O)N(c2ccc(C(F)(F)F)c(C)c2)C[C@@H]3C)ccn1 [compound 258]
3.24e-07	108			Cc1cc(-c2cnn3c2C(=O)N(c2ccc(Cl)cn2)C[C@@H]3C)ccn1 [compound 187]
4.07e-08	107			CCCc1ccc(N2C[C@H](C)n3ncc(-c4ccnc(C)c4)c3C2=O)cc1 [compound 66]
2.57e-05	67			CCOc1ccc(C(F)(F)F)c(N2C[C@H](C)n3ncc(-c4ccnc(C)c4)c3C2=O)n1 [compound 199]
6.46e-08		106		COCC1CN(c2ccc(C(F)(F)F)cc2)C(=O)c2c(-c3ccnc(C)c3)cnn21 (single isomer, unassigned) [compound 120]
1.66e-09	104			C[C@H]1CN(c2ccc(Cl)c(Cl)c2)C(=O)c2c(-c3ccnc(N4CCC4)c3)cnn21 [compound 97]
5.62e-07		105		Cc1cc(-c2cnn3c2C(=O)N(c2ccc(Cl)c(Cl)c2)CC3CF)ccn1 (single isomer, unassigned) [compound 116]
1.95e-08	105			COCC1CN(c2ccc(Cl)c(Cl)c2)C(=O)c2c(-c3ccnc(C)c3)cnn21 (single isomer, unassigned) [compound 118]
4.17e-07	103			Cc1cc(-c2cnn3c2C(=O)N(c2ccc(C(F)(F)F)cc2)CC3C(F)F)ccn1 (stereo not drawn) [compound 181, 7-(Difluoromethyl)-3-(2-methyl-4-pyridyl)-5-[4-(trifluoromethyl)phenyl]-6,7-dihydropyrazolo[1,5-a]pyrazin-4-one]
2.24e-08	116			CNc1cc(-c2cnn3c2C(=O)N(c2ccc(C(F)(F)F)cc2)C[C@@H]3C)cc(F)n1 [compound 243]
5.62e-07	101			C[C@H]1CN(c2ccc(C(F)(F)F)cc2)C(=O)c2c(-c3cccnc3)cnn21 [compound 32]
8.32e-09	109			C[C@H]1CN(c2ccc(C(F)(F)F)c(OCCF)c2)C(=O)c2c(-c3ccnc(N(C)C)c3)cnn21 [compound 249]
> 5.01e-05	49			Cc1cc(-c2cnn3c2C(=O)N(c2ccc(C(C)O)cc2)C[C@@H]3C)ccn1 (stereo partly drawn) [compound 149, (7S)-5-[4-(1-Hydroxyethyl)phenyl]-7-methyl-3-(2-methyl-4-pyridyl)-6,7-dihydropyrazolo[1,5-a]pyrazin-4-one]
8.32e-09	104			CCOc1cc(-c2cnn3c2C(=O)N(c2ccc(Cl)c(Cl)c2)C[C@@H]3C)ccn1 [compound 133]
4.17e-09	116			C[C@H]1CN(c2ccc(C(F)(F)F)c(CF)c2)C(=O)c2c(-c3ccnc(N(C)C)c3)cnn21 [compound 246]
9.12e-08	103			Cc1cc(-c2cnn3c2C(=O)N(c2ccc(C(C)C(F)(F)F)cc2)C[C@@H]3C)ccn1 (stereo partly drawn) [compound 113]
5.37e-08	103			Cc1cc(-c2cnn3c2C(=O)N(c2cc(F)cc(OC(F)F)c2)C[C@@H]3C)ccn1 [compound 69]
2.69e-09	108			CCCNc1cc(-c2cnn3c2C(=O)N(c2ccc(C(F)(F)F)c(Cl)c2)C[C@@H]3C)ccn1 [compound 264]
3.24e-09	104			CCc1cc(-c2cnn3c2C(=O)N(c2ccc(Cl)c(Cl)c2)C[C@@H]3C)ccn1 [compound 134]
1.78e-08	114			C[C@H]1CN(c2ccc(C(F)(F)F)cc2)C(=O)c2c(-c3ccnc(N4CCCCC4)c3)cnn21 [compound 107]
6.03e-09		104		CNc1cc(-c2cnn3c2C(=O)N(c2ccc(Cl)c(Cl)c2)CC3CF)ccn1 (single isomer, unassigned) [compound 185]

IC50 [1] [M]	Emax [%]	GTPγS - hmGluR2 anGT Emax [%]	GTPγS - hmGluR2 anGT pIC50 [1]	SMILES
4.79e-09		112		Cc1cc(-c2cnn3c2C(=O)N(c2ccc(Cl)c(Cl)c2)C[C@@H]3C)ccn1 [6a]
1.7e-09	109			CCN(C)c1cc(-c2cnn3c2C(=O)N(c2ccc(C(F)(F)F)c(Cl)c2)C[C@@H]3C)ccn1 [compound 254]
5.01e-08	107			Cc1cc(-c2cnn3c2C(=O)N(c2ccc(Cl)c(C)n2)C[C@@H]3C)ccn1 [compound 196]
1.82e-08	109			CNc1cc(-c2cnn3c2C(=O)N(c2ccc(C(F)(F)F)cc2)C[C@@H]3C)cc(C)n1 [compound 241]
2e-08	104			Cc1cc(-c2cnn3c2C(=O)N(c2ccc(C(F)(F)F)c(OC(C)C)c2)C[C@@H]3C)ccn1 [compound 154]
1.02e-08	103			Cc1cc(-c2cnn3c2C(=O)N(c2ccc(Cl)c(Cl)n2)C[C@@H]3C)ccn1 [compound 202]
1.1e-08	107			CC(C)Nc1cc(-c2cnn3c2C(=O)N(c2ccc(Cl)c(Cl)c2)C[C@@H]3C)ccn1 [compound 261]
2.51e-06		100		COCC1CN(c2ccc(Cl)c(Cl)c2)C(=O)c2c(-c3ccnc(C)c3)cnn21 (single isomer, unassigned) [compound 119]
6.46e-09	104			COc1nc(N2C[C@H](C)n3ncc(-c4ccnc(N5CCC5)c4)c3C2=O)ccc1C(F)(F)F [compound 209]
1e-06	102			Cc1cc(-c2cnn3c2C(=O)N(c2ccccc2)C[C@@H]3C)ccn1 [compound 86]
2.82e-07	100			Cc1cc(-c2cnn3c2C(=O)N(c2ccc(C)c(F)c2)C[C@@H]3C)ccn1 [compound 76]
	106		7.1	CCC1CN(c2ccc(C(F)(F)F)cc2)C(=O)c2c(-c3ccnc(C)c3)cnn21 (stereo not drawn) [compound 70]
1.82e-08	107			CC(C)Oc1cc(-c2cnn3c2C(=O)N(c2ccc(Cl)c(Cl)c2)C[C@@H]3C)ccn1 [compound 137]
9.33e-09	105			C[C@H]1CN(c2ccc(C(F)(F)F)c(Cl)c2)C(=O)c2c(-c3ccnc(OCCF)c3)cnn21 [compound 177]
6.17e-09	109			CC(C)Nc1cc(-c2cnn3c2C(=O)N(c2ccc(C(F)(F)F)c(Cl)c2)C[C@@H]3C)ccn1 [compound 262]
3.39e-08	105			Cc1cc(-c2cnn3c2C(=O)N(c2cc(F)cc(Cl)c2)C[C@@H]3C)ccn1 [compound 63]
4.47e-08	106			Cc1cc(-c2cnn3c2C(=O)N(c2ccc(C(C)C)cc2)C[C@@H]3C)ccn1 [compound 65]
4.68e-09	109			CCCNc1cc(-c2cnn3c2C(=O)N(c2ccc(Cl)c(Cl)c2)C[C@@H]3C)ccn1 [compound 263]
6.17e-08	102			Cc1cc(-c2cnn3c2C(=O)N(c2ccc(C(C)(C)C)cc2)C[C@@H]3C)ccn1 [compound 141]
8.71e-08	104			COc1ccc(N2C[C@H](C)n3ncc(-c4ccnc(C)c4)c3C2=O)cc1Cl [compound 20]
4.17e-08	104			COc1cc(-c2cnn3c2C(=O)N(c2ccc(Cl)cc2)C[C@@H]3C)ccn1 [compound 89]
3.63e-08	103			CNc1cc(-c2cnn3c2C(=O)N(c2ccc(C(F)(F)F)c(C#N)c2)C[C@@H]3C)ccn1 [compound 179]

SMILES	IC50 [1] [M]	Emax [%]	GTPγS - hmGluR2 anGT Emax [%]	GTPγS - hmGluR2 anGT pIC50 [1]
Cc1cc(-c2cnn3c2C(=O)N(c2ccc(C#N)c(F)c2)C[C@@H]3C)ccn1 [compound 75]	2.75e-07	100		
